Test results as given in the OPERA property sets (Mansouri et al. 2018).

Conditions: not given

SMILES | boiling point [°C] | melting point [°C] | log10 vapour pressure (mmHg) | log10 Koc (L/kg) | ready biodegradability | log10 Henry constant (atm·m³/mol) | log10 Koa
O=C(O)c1c(F)c(F)c(F)c(F)c1F | 220 | 101 | – | – | – | – | –
CN(C)c1ccc2cc3ccc(N(C)C)cc3nc2c1 | – | 165 | – | – | – | – | –
NS(=O)(=O)c1ccc(SCCCCO)s1 | – | 48.5 | – | – | – | – | –
Cc1ccccc1NC(=S)Nc1ccccc1C | – | 158 | – | – | – | – | –
Clc1ccc2c(c1)Oc1cc(Cl)ccc1O2 | – | 151 | -5.98 | – | – | – | –
CCCCCCN1CC(C(=O)O)CC1=O (stereo unspecified) | – | 42.5 | – | – | – | – | –
CCNCC.Cl | – | 228 | – | – | – | – | –
CCCCCCCCCCc1ccc(N)cc1 | – | 25 | – | – | – | – | –
CC(C)(O)C#CC(C)(C)O | 205 | 95 | – | – | – | – | –
COc1ccccc1OC | 206 | 22.5 | -0.328 | 2.03 | readily biodegradable | – | –
CC(=O)OCCC(C)C | 142 | -78.5 | 0.748 | – | – | -3.23 | 3.94
N[C@@H](CCC(=O)O)C(=O)O | – | – | -7.77 | – | readily biodegradable | – | –
C(=Nc1ccccc1)Nc1ccccc1 | – | 142 | – | – | – | – | –
O=C(c1ccc(Cl)cc1)c1ccc(Cl)cc1 | 353 | 148 | – | – | – | – | –
CC(C)=CCCC(C)CCO (stereo unspecified) | – | – | -1.36 | – | – | – | –
OCCNCO | – | – | – | – | readily biodegradable | – | –
Cc1cccc(Br)c1C | 214 | – | – | – | – | – | –
CN(C)c1nc(N(C)C)nc(N(C)C)n1 | – | 173 | – | – | – | – | –
CCN(CC)c1nc(Cl)nc(N(CC)CC)n1 | – | 27 | – | – | – | – | –
CCC(C)(C)c1ccccc1 | 192 | – | – | – | not readily biodegradable | – | –
O[C@H](CCl)[C@H](O)CCl | – | 126 | – | – | – | – | –
Cc1cccc2c1CCCC2 | 234 | -23 | – | – | – | – | –
C=C(C)C1CC=C(C=O)CC1 (stereo unspecified) | 240 | – | – | – | – | – | –

SMILES | boiling point [°C] | melting point [°C] | log10 vapour pressure (mmHg) | log10 Koc (L/kg) | ready biodegradability | log10 Henry constant (atm·m³/mol) | log10 Koa
c1ccc(OC2CCCCC2)cc1 | 261 | – | – | – | – | – | –
O=C(Nc1ccccc1)NC1CC1 | – | – | – | 1.74 | – | – | –
COC(=O)c1ccccc1C | 215 | – | – | – | – | – | –
NC(=O)C(F)(F)F | 162 | 72.5 | – | – | – | – | –
CCCCC(N)=O | 225 | 106 | – | – | – | – | –
COc1ccc2c(c1O)-c1c3c(cc4c1[C@H](C2)N(C)CC4)OCO3 | – | 200 | – | – | – | – | –
CN1CCNCC1 | 138 | -6 | – | – | – | – | –
COc1nsnc1NS(=O)(=O)c1ccc(N)cc1 | – | 150 | – | – | – | – | –
CCC(C(C)=O)C(=O)OC (stereo unspecified) | 182 | – | – | – | – | – | –
NCCc1ccc(Br)cc1 | – | – | – | – | readily biodegradable | – | –
Clc1ccc(-c2cccc(Cl)c2Cl)cc1 | – | – | – | – | – | -3.85 | –
c1cc2c3c(c1)CCC3CCC2 (stereo unspecified) | 249 | 12.8 | – | – | – | – | –
O=P(c1ccccc1)(c1ccccc1)c1ccccc1 | – | 156 | -8.59 | – | – | – | –
CC(=O)Oc1ccc2c(c1)CC[C@@H]1[C@@H]2CC[C@]2(C)C(=O)[C@H](OC(C)=O)C[C@@H]12 | – | 180 | – | – | – | – | –
CCCC(C)CO (stereo unspecified) | 149 | – | 0.283 | – | – | – | –
CC(=O)OCC(C)OC(C)=O (stereo unspecified) | 190 | – | – | – | – | – | –
CCCCCCCCC(CCCCCCCC)C(=O)O | – | 38.5 | – | – | – | – | –
CN(C)CC(=O)O | – | 186 | – | – | – | – | –
OCC1CO1 (stereo unspecified) | – | – | – | – | readily biodegradable | – | –
Cc1c(Cl)cccc1Nc1ncccc1C(=O)O | – | 234 | – | – | – | – | –
CCCOC(=O)c1ccc(N)cc1 | – | 75 | – | – | – | – | –
C=Cc1ccc(C)nc1 | 181 | – | 0.0719 | – | – | – | –
C=CC(C)(O)CC(C)C (stereo unspecified) | 146 | – | – | – | – | – | –

SMILES | boiling point [°C] | melting point [°C] | log10 vapour pressure (mmHg) | log10 Koc (L/kg) | ready biodegradability | log10 Henry constant (atm·m³/mol) | log10 Koa
Oc1c(Cl)ccc(Cl)c1Cl | – | 58 | – | – | – | – | –
COC(=O)NS(=O)(=O)c1ccc(N)cc1 | – | 144 | – | 1.6 | – | – | –
CC(C)CBr | 91.1 | -119 | – | – | – | – | –
CC(C)CC(=O)CC(C)C | 169 | -41.5 | 0.217 | – | – | – | –
Cc1cccc(Cl)n1 | 184 | – | – | – | – | – | –
COCCOc1cnc(NS(=O)(=O)c2ccccc2)nc1 | – | 153 | – | – | – | – | –
CC(C)N(N=O)C(C)C | 194 | 48 | – | – | – | – | –
CCCCCCC(C=O)=Cc1ccccc1 | – | 39.2 | – | – | – | – | –
C[C@]12CCC(=O)C=C1CC[C@@H]1[C@@H]2CC[C@]2(C)C(=O)CC[C@@H]12 | – | 158 | – | – | – | – | –
O=C1CCC(=O)N1Br | – | 174 | – | – | – | – | –
CCCCCCCCCCCCCCCC(=O)OC(C)C | – | 13.5 | -4.25 | – | – | – | –
C1CN(CCN2CCOCC2)CCO1 | 285 | 75 | – | – | – | – | –
Brc1cc2c(cc1Br)Oc1ccccc1O2 | – | 158 | -5.92 | – | – | – | –
S=C(S)NCCNC(=S)S | – | – | – | – | not readily biodegradable | – | –
CCCCc1c(C)nc(NCC)nc1OS(=O)(=O)N(C)C | – | 50.5 | -6.12 | – | – | – | –
CCCCCCN(CCCCCC)C(=O)COC(=O)c1ccccc1 | – | 162 | – | – | – | – | –
OC(Cc1ccccc1)(c1ccccc1)c1ccccc1 | – | 89.5 | – | – | – | – | –
Nc1ncnc(Nc2ccc(Cl)cc2)n1 | – | 234 | – | – | – | – | –
C=C(C)Cn1c(N)cc(=O)n(C)c1=O | – | 175 | – | – | – | – | –
O=c1[nH]c2ccccc2c(-c2ccccc2)c1O | – | 268 | – | – | – | – | –
Cc1cccs1 | 113 | -63.4 | 1.4 | – | – | -2.62 | –

Same assay, conditions: fish

SMILES | log10 BCF | log10 biotransformation half-life (days)
O=C1c2ccccc2C(=O)C1c1nc2ccccc2c(Br)c1O | 1.14 | –
O=[N+]([O-])c1cc(Cl)cc(Cl)c1 | 2.23 | 0.57
Cc1ccc(Cl)cc1 | 1.76 | -0.83
Oc1ccc(Cc2ccccc2)cc1 | 1.33 | -0.86
Clc1cc2oc3c(Cl)c(Cl)cc(Cl)c3c2c(Cl)c1Cl | 3.2 | –
c1ccc2nc3ccccc3cc2c1 | 2.1 | –
Clc1ccc(-c2cccc(Cl)c2Cl)cc1 | – | 2.16
